One assay has as its system retinal blood vessels. As to the kind of experiment: Pharmacological Test 2: retinal vasodilatory action (retinal vascular diameter) after intravitreal administration of omidenepag isopropyl to rabbits. Format: in vivo, rabbit. Particulars: for Base-Corrected Retinal Vascular Diameter Change Rate (%) 1 Hour After Administration / Base-Corrected Retinal Vascular Diameter Change Rate (%) 2 Hours After Administration / Base-Corrected Retinal Vascular Diameter Change Rate (%) 6 Hours After Administration / Base-Corrected Retinal Vascular Diameter Change Rate (%) 24 Hours After Administration / Base-Corrected Retinal Vascular Diameter Change Rate (%) 48 Hours After Administration: 20 μL intravitreal single injection, pigmented rabbits. On the procedure: (a) The fundus images captured immediately before the administration, 1 hour, 2 hours, 6 hours, and 24 hours after the administration were used to measure, as the vascular diameters, (i) the vascular diameter of the retinal artery on the nose side, (ii) the vascular diameter of the retinal artery on the ear side, and (iii) the optic nerve head diameter (longitudinal diameter passing through the center of the optic nerve head).
(b) The average value of (i) the vascular diameter of the retinal artery on the nose side and (ii) the vascular diameter of the retinal artery on the ear side measured from the fundus images for each time period was divided by (iii) the optic nerve head diameter to calculate the corrected retinal vascular diameter. [Corrected Retinal Vascular Diameter]=(([(i) Vascular Diameter of Retinal Artery on Nose Side]+[(ii) Vascular Diameter of Retinal Artery on Ear Side])/2)/([(iii) Optic Nerve Head Diameter])
(c) The ratio of the corrected retinal vascular diameter after passage of each of the time periods of 1 hour, 2 hours, 6 hours, and 24 hours after administration to the corrected retinal vascular diameter immediately before administration (retinal vascular diameter change rate (%)) was calculated. [Retinal Vascular Diameter Change Rate (%) After Passage of Each Time Period After Administration]=[Corrected Retinal Vascular Diameter After Passage of Each Time Period After Administration]/[Corrected Retinal Vascular Diameter Immediately Before Administration]×100
(d) For each time period after administration, the difference (base-corrected retinal vascular diameter change rate (%)) was calculated between the retinal vascular diameter change rate (%) of the group administered with the base simultaneously carried out and the retinal vascular diameter change rate (%) of the groups administered with samples (omidenepag samples 1 and 2, and CP-544326 samples 1 and 2). [Base-Corrected Retinal Vascular Diameter Change Rate (%) After Passage of Each Time Period]=[Retinal Vascular Diameter Change Rate (%) After Passage of Each Time Period After Administration of Samples]−[Retinal Vascular Diameter Change Rate (%) After Passage of Each Time Period After Administration of Base]
(e) The base-corrected retinal vascular diameter change rate (%) of (a) to (d) above was calculated for three experimental animals in each group, and the average thereof was defined as the value of the “base-corrected retinal vascular diameter change rate (%).”
In order to find anew medicinal use of omidenepag, an ester thereof, or a salt thereof, the retinal vasodilatory action in the case of administering omidenepag isopropyl to rabbits was examined.
Omidenepag isopropyl at 3.98 mg was dissolved in dimethyl sulfoxide to a total volume of 118 μL. Of the total volume, 10 μL was added and dissolved into physiological saline, and an appropriate amount of sodium hydroxide solution was added to adjust the pH of the formulation to 6.4. Thereafter, physiological saline was further added to a total volume of 10 mL to obtain omidenepag isopropyl sample 1 (containing 0.00338% (w/v) (33.8 μg/mL) of omidenepag isopropyl). In addition, the base B was added to 0.1 mL of omidenepag isopropyl sample 1 to a total volume of 10 mL, and omidenepag isopropyl sample 2 was obtained (containing 0.0000338% (w/v) (0.338 μg/mL) of omidenepag isopropyl).
In the same method as that in Pharmacological Test 1, the base B and omidenepag isopropyl samples 1 and 2, each at 20 μL, were administered intravitreally (injection, single time) to examine the change in retinal vascular diameter. Note that, 1 hour, 2 hours, 6 hours, 24 hours, and 48 hours after administration of each test compound solution, fundus images of the retinal vascular diameter measuring eyes were captured, and the retinal vascular diameters and the like were measured from the obtained fundus images. […]

Assay [1] concerns optic nerve head tissue blood flow. As to the kind of experiment: Pharmacological Test 4: optic nerve head tissue blood flow (laser speckle flowgraphy) after repeated instillation of omidenepag isopropyl to rabbits. Format: in vivo, rabbit. Particulars: for Base-Corrected Optic Nerve Head Tissue Blood Flow Change Rate (%): 0.002% (w/v) (20 μg/mL), 50 μL instilled once a day for 14 days, rabbit, average of four animals. On the procedure:
In order to find a new medicinal use of omidenepag, an ester thereof, or a salt thereof, the action of increasing tissue blood flow in the optic nerve head in the case of instilling omidenepag isopropyl to rabbits was examined.
Omidenepag isopropyl, polyoxyl 35 castor oil, glycerin, sodium citrate, sodium edentate, and benzalkonium chloride were added and dissolved into purified water to adjust the pH. Thereafter, purified water was added to adjust the total volume, thereby preparing a 0.002 w/v % omidenepag isopropyl solution (omidenepag isopropyl sample 3).
The base D and omidenepag isopropyl sample 3 as test compound solutions, each at 50 μL, were instilled (ophthalmic solution, once a day, repeated instillation for 14 days) to examine the change in optic nerve head tissue blood flow. In addition, pigmented rabbits (strain: Dutch, sex: male, four animals per group) were used as experimental animals.
1) After holding the above experimental animals, one drop (about 0.03 mL) of a 0.4% tropicamide ophthalmic solution (trade name: Mydrin-M ophthalmic solution 0.4%) was instilled into the optic nerve head tissue blood flow measurement eye to fully dilate the pupil. Thereafter, laser speckle flowgraphy (LSFG-NAVI manufactured by Softcare Co., Ltd.) was used to measure the tissue blood flow in the optic nerve head of the measurement eye.
2) The test compound solutions were instilled at 50 μL into one eye (optic nerve head tissue blood flow measurement eye) of each of the experimental animals once a day for 14 days (the contralateral eye was untreated).
3) At 1 hour and 2 hours after administration of each test compound solution at day 1, day 7, and day 14 after administration of each test compound solution, the optic nerve head tissue blood flow of the optic nerve head tissue blood flow measurement eye was measured.
(a) The ratio of the optic nerve head tissue blood flow after passage of each of the time periods of 1 hour and 2 hours after administration of each test compound solution at day 1, day 7, and day 14 after the start of administration of each test compound solution to the optic nerve head tissue blood flow immediately before administration (optic nerve head tissue blood flow change rate (%)) was calculated. [Optic Nerve Head Tissue Blood Flow Change Rate (%) After Passage of Each Time Period After Administration]=[Optic Nerve Head Tissue Blood Flow After Passage of Each Time Period After Administration]/[Optic Nerve Head Tissue Blood Flow Immediately Before Administration]×100
(b) For each time period after administration, the difference (base-corrected optic nerve head tissue blood flow change rate (%)) was calculated between the optic nerve head tissue blood flow change rate (%) of the group administered with the base D simultaneously carried out and the optic nerve head tissue blood flow change rate (%) of the group administered with omidenepag isopropyl sample 3. [Base-Corrected Optic Nerve Head Tissue Blood Flow Change Rate (%) After Passage of Each Time Period]=[Optic Nerve Head Tissue Blood Flow Change Rate (%) After Passage of Each Time Period After Administration of Omidenepag Isopropyl Sample 3]−[Optic Nerve Head Tissue Blood Flow Change Rate (%) After Passage of Each Time Period After Administration of Base D]
(c) The base-corrected optic nerve head tissue blood flow change rate (%) of (a) and (b) above was calculated for four experimental animals in each group, and the average thereof was defined as the value of the “base-corrected optic nerve head tissue blood flow change rate (%).”

Structures are written as SMILES.

Turning to `CC(C)OC(=O)CNc1cccc(CN(Cc2ccc(-n3cccn3)cc2)S(=O)(=O)c2cccnc2)n1` [Omidenepag Isopropyl, isopropyl (6-{[4-(pyrazol-1-yl)benzyl](pyridin-3-ylsulfonyl)aminomethyl}pyridin-2-ylamino)acetate], the “Base-Corrected Retinal Vascular Diameter Change Rate (%) 1 Hour After Administration” value was 25.1% with retinal blood vessels (0.0000338% (w/v) (0.338 μg/mL)) and 58.4% in the assay on retinal blood vessels (0.00338% (w/v) (33.8 μg/mL)). Besides, the “Base-Corrected Retinal Vascular Diameter Change Rate (%) 2 Hours After Administration” value with retinal blood vessels (0.0000338% (w/v) (0.338 μg/mL)) is recorded as 34.5%; in the assay with retinal blood vessels (0.00338% (w/v) (33.8 μg/mL)) it was 81.7%. The figures for the “Base-Corrected Retinal Vascular Diameter Change Rate (%) 6 Hours After Administration” value with retinal blood vessels (0.0000338% (w/v) (0.338 μg/mL)) and in the assay on retinal blood vessels (0.00338% (w/v) (33.8 μg/mL)) were 18.4% and 73.8%, respectively. Further, the figures for the “Base-Corrected Retinal Vascular Diameter Change Rate (%) 24 Hours After Administration” value with retinal blood vessels (0.0000338% (w/v) (0.338 μg/mL)) and in the assay on retinal blood vessels (0.00338% (w/v) (33.8 μg/mL)) were 6.8% and 16.0%, respectively. Also, the results for the “Base-Corrected Retinal Vascular Diameter Change Rate (%) 48 Hours After Administration” value in the assay with retinal blood vessels (0.0000338% (w/v) (0.338 μg/mL)) and in the assay with retinal blood vessels (0.00338% (w/v) (33.8 μg/mL)) were 1.7% and 0.0%, respectively. Also, the “durability of retinal vasodilatory action compared with omidenepag (in words)” value with retinal blood vessels (both 65.0 μM, 24 hours after intravitreal administration, rabbits) was “amore durable action than omidenepag”. Also, the “retinal vasodilatory action (in words)” value with retinal blood vessels (intravitreal, rabbits) was “significantly strong retinal vasodilatory action”. In addition, the “blood flow increasing action, optic nerve head (in words)” value in assay [1] (0.002 w/v % solution, 50 μL instillation once a day for 14 days, rabbits) was “good blood flow increasing action”. The “Base-Corrected Optic Nerve Head Tissue Blood Flow Change Rate (%)” value in assay [1] (Day 1, 1 hour after administration) is 7.2%; in assay [1] (Day 1, 2 hours after administration), 6.3%; in assay [1] (Day 7, 1 hour after administration), 9.9%; in assay [1] (Day 7, 2 hours after administration), 12.4%; in assay [1] (Day 14, 1 hour after administration), 13.6%; in assay [1] (Day 14, 2 hours after administration), 11.5%.

For the origin of these results see patent US10940144B2, “Drug containing pyridylaminoacetic acid compound” (priority 2017, dated 2021).
